Experimental data taken from patent US7842324B2 (Senomyx, Inc., priority 2005, dated 2010).

Molecular target: T1, hT1R2/hT1R3 sweet receptor expressed in HEK293 cell line (Homo sapiens, UniProt Q7RTX0+Q8TE23)
T1 construct: expressed in transfected cells; host or cells: HEK293 derivative stably expressing Gα15 and hT1R2/hT1R3, clone S-9
T1 sequence (Q8TE23 20-839): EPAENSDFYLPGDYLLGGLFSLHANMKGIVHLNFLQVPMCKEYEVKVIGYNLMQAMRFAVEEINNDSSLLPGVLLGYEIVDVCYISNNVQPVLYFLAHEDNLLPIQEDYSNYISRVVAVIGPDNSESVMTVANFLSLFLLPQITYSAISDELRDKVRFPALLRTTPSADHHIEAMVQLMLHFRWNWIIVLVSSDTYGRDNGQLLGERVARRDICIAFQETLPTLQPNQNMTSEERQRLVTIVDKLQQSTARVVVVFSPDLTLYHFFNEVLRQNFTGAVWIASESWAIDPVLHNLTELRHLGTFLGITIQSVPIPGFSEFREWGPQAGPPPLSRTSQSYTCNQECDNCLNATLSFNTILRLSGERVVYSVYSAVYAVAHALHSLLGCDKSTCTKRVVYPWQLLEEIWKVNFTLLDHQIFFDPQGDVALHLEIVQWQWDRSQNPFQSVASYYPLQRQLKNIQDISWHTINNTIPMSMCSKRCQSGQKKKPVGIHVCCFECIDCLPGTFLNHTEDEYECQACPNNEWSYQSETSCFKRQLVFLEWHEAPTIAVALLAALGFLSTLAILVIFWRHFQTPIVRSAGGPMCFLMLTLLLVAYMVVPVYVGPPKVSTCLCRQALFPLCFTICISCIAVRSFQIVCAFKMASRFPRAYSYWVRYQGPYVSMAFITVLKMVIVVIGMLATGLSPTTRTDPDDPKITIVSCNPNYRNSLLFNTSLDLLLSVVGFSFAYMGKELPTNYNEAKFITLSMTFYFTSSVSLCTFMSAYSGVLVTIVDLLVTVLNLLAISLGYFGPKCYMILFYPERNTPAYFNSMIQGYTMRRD
T1 sequence (Q7RTX0 21-852): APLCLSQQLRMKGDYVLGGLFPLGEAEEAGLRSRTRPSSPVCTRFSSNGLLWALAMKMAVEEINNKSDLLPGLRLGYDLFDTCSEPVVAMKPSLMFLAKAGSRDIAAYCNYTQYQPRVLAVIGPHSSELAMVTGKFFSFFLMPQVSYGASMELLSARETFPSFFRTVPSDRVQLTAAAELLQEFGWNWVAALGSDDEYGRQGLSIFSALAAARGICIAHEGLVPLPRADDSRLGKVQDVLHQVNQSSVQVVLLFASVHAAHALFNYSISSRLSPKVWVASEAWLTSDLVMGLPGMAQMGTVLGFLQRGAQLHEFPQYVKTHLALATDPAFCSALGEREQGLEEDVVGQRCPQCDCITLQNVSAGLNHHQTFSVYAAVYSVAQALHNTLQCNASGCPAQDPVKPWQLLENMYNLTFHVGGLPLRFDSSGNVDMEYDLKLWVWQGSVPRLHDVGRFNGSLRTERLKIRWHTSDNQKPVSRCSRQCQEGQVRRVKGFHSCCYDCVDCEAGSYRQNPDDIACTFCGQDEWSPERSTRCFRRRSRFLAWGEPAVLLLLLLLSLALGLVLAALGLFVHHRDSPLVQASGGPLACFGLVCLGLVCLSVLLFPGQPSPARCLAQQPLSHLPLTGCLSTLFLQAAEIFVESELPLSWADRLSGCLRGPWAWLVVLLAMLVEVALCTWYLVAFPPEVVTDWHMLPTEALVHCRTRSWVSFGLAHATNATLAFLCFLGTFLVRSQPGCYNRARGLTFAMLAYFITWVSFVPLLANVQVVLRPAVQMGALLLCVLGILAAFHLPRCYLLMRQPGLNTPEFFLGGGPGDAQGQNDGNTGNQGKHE
Assay: In vitro hT1R2/hT1R3-HEK293 taste receptor activation assay (FLIPR)
Format: cell-based
Conditions: read-out: EC50 for activation of a hT1R2/hT1R3 sweet receptor expressed in HEK293 cell line
In short: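 HEK293 cells stably expressing Gα15 and hT1R2/hT1R3 were loaded with Fluo-3AM (4 μM, 1 h, room temperature), then stimulated at room temperature in D-PBS. Peak fluorescence (ex 480/em 535 nm) was normalized to basal. Dose-responses were run in duplicate over 60 nM–30 μM, normalized to 400 mM D-fructose, and EC50 fitted by free-Hill non-linear regression.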

EC50: 150 nM
SMILES: CC(C)CNC(=O)C(C)(C)c1ccc(-c2cncc(C#N)c2)cc1 [Compound 23, 2-(4-(5-cyanopyridin-3-yl)phenyl)-N-isobutyl-2-methylpropanamide]
